Reference: ChEMBL document CHEMBL4725293, “Synthesis of novel lignan-like compounds and their antimicrobial activity” (Bioorg Med Chem Lett, 2020)
In brackets after ≈: the same amount, converted by molar mass. Each block holds one compound with its values, some of them ahead of it. Activity calls are given as the source filed them. The rule behind the calls is not given here.

What was measured:
Pseudomonas aeruginosa = assay: Antibacterial activity against Pseudomonas aeruginosa ATCC 27853 by broth microdilution method; assay type: functional
Staphylococcus aureus [1] = assay: Antibacterial activity against Staphylococcus aureus ATCC 29213 by broth microdilution method; assay type: functional
Candida albicans = assay: […] activity against Candida albicans ATCC 90028 by broth microdilution method; assay type: functional
[2] = Cytotoxicity against human HaCaT cells assessed as reduction in cell viability at 32 ug/ml incubated for 24 hrs by MTT assay; assay type: cell-based; conditions: at 32 µg/mL, read-out: INH
[3] = tested on: Staphylococcus epidermidis; assay: Inhibition of biofilm formation in Staphylococcus epidermidis ATCC 35984 at 64 ug/ml by crystal violet staining based assay relative to control; assay type: functional
Staphylococcus aureus [4] = assay: Bactericidal activity against Staphylococcus aureus ATCC 29213 at 32 ug/ml measured at 24 hrs by time kill assay (reference value: 5.65 to 9.57); assay type: functional; conditions: dose 32 µg/ml
Staphylococcus aureus [5] = assay: Bactericidal activity against Staphylococcus aureus ATCC 29213 at 32 ug/ml measured at 0 hrs by time kill assay (reference value: 5.65 to 9.57); assay type: functional; conditions: dose 32 µg/ml
[6] = Cytotoxicity against human HaCaT cells assessed as reduction in cell viability at 16 ug/ml incubated for 24 hrs by MTT assay; assay type: cell-based; conditions: at 16 µg/mL, read-out: INH
[7] = tested on: Staphylococcus epidermidis; assay: Antibacterial activity against Staphylococcus epidermidis ATCC 35984 by broth microdilution method; assay type: functional
Staphylococcus aureus [8] = assay: Bactericidal activity against Staphylococcus aureus ATCC 29213 at 32 ug/ml measured at 1 hr by time kill assay (reference value: 5.65 to 9.57); assay type: functional; conditions: dose 32 µg/ml
Staphylococcus aureus [9] = assay: Bactericidal activity against Staphylococcus aureus ATCC 29213 at 32 ug/ml measured at 6 hrs by time kill assay (reference value: 5.65 to 9.57); assay type: functional; conditions: dose 32 µg/ml
Staphylococcus aureus [10] = assay: Bactericidal activity against Staphylococcus aureus ATCC 29213 at 32 ug/ml measured at 3 hrs by time kill assay (reference value: 5.65 to 9.57); assay type: functional; conditions: dose 32 µg/ml
[11] = tested on: Staphylococcus epidermidis; assay: Inhibition of biofilm formation in Staphylococcus epidermidis ATCC 35984 at 8 to 32 ug/ml by crystal violet staining based assay relative to control; assay type: functional, organism-based; conditions: dose microg/ml 8-32
[12] = tested on: Staphylococcus epidermidis; assay: Induction of preformed biofilm disruption in Staphylococcus epidermidis ATCC 35984 at 64 ug/ml by crystal violet staining based assay relative to control; assay type: functional; conditions: dose 64.0 µg/ml
Staphylococcus aureus [13] = assay: Bactericidal activity against Staphylococcus aureus ATCC 29213 at 16 ug/ml measured at 1 hr by time kill assay (reference value: 5.65 to 9.57); assay type: functional; conditions: dose 16 µg/ml
Staphylococcus aureus [14] = assay: Bactericidal activity against Staphylococcus aureus ATCC 29213 at 16 ug/ml measured at 0 hrs by time kill assay (reference value: 5.65 to 9.57); assay type: functional; conditions: dose 16 µg/ml
Staphylococcus aureus [15] = assay: Bactericidal activity against Staphylococcus aureus ATCC 29213 at 16 ug/ml measured at 6 hrs by time kill assay (reference value: 5.65 to 9.57); assay type: functional; conditions: dose 16 µg/ml
Staphylococcus aureus [16] = assay: Bactericidal activity against Staphylococcus aureus ATCC 29213 at 16 ug/ml measured at 3 hrs by time kill assay (reference value: 5.65 to 9.57); assay type: functional; conditions: dose 16 µg/ml
Staphylococcus aureus [17] = assay: Bactericidal activity against Staphylococcus aureus ATCC 29213 at 16 ug/ml measured at 24 hrs by time kill assay (reference value: 5.65 to 9.57); assay type: functional; conditions: dose 16 µg/ml

SMILES: C[C@@H]1[C@H](O)[C@@H](C)/C=C/C=C/C=C/C=C/C=C/C=C/C=C/[C@H](O[C@@H]2O[C@H](C)[C@@H](O)[C@H](N)[C@@H]2O)C[C@@H]2O[C@](O)(C[C@@H](O)C[C@@H](O)[C@H](O)CC[C@@H](O)C[C@@H](O)CC(=O)O[C@H]1C)C[C@H](O)[C@H]2C(=O)O [AMPHOTERICIN B]
MIC (Candida albicans): 0.25 µg/mL (≈ 0.271 µM)

SMILES: NC[C@H]1O[C@H](O[C@H]2[C@H](O)[C@@H](O[C@H]3O[C@H](CO)[C@@H](O)[C@H](N)[C@H]3O)[C@H](N)C[C@@H]2N)[C@H](N)C[C@@H]1O [TOBRAMYCIN]
MIC (Pseudomonas aeruginosa): 4 µg/mL (≈ 8.56 µM)

SMILES: Oc1ccc(Cc2cocc2Cc2ccc(O)cc2)cc1
MIC (Pseudomonas aeruginosa): > 128 µg/mL
MIC (Staphylococcus aureus [1]): 32 µg/mL (≈ 114 µM)
cytotoxicity at 24 h, 32 ug/ml [2]: 40%
inhibition at 64 µg/mL [3]: 33%
Activity (Staphylococcus aureus [4]): 8.86 log10CFU/ml
Activity (Staphylococcus aureus [5]): 5.74 log10CFU/ml
cytotoxicity at 24 h, 16 ug/ml [6]: 25%
MIC [7]: 32 µg/mL (≈ 114 µM)
Activity (Staphylococcus aureus [8]): 5.77 log10CFU/ml
Activity (Staphylococcus aureus [9]): 7.77 log10CFU/ml
MIC (Candida albicans): 32 µg/mL (≈ 114 µM)
Activity (Staphylococcus aureus [10]): 6.38 log10CFU/ml
inhibition [11]: inactive
inhibition [12]: 25%

SMILES: COc1ccc(Cc2cocc2Cc2ccccc2O)cc1
MIC (Pseudomonas aeruginosa): > 128 µg/mL
MIC (Staphylococcus aureus [1]): 16 µg/mL (≈ 54.4 µM)
Activity (Staphylococcus aureus [13]): 2.47 log10CFU/ml
Activity (Staphylococcus aureus [14]): 5.7 log10CFU/ml
Activity (Staphylococcus aureus [15]): 1.61 log10CFU/ml
Activity (Staphylococcus aureus [16]): 1.94 log10CFU/ml
Activity (Staphylococcus aureus [17]): 1.56 log10CFU/ml

SMILES: COc1ccc(Cc2cocc2Cc2ccc(O)cc2)cc1
MIC (Pseudomonas aeruginosa): > 128 µg/mL
MIC (Staphylococcus aureus [1]): 16 µg/mL (≈ 54.4 µM)
Activity (Staphylococcus aureus [13]): 2.2 log10CFU/ml
inhibition at 64 µg/mL [3]: 33%
cytotoxicity at 24 h, 16 ug/ml [6]: 50%
MIC [7]: 16 µg/mL (≈ 54.4 µM)
MIC (Candida albicans): 16 µg/mL (≈ 54.4 µM)
Activity (Staphylococcus aureus [14]): 5.75 log10CFU/ml
Activity (Staphylococcus aureus [15]): 1.35 log10CFU/ml
Activity (Staphylococcus aureus [16]): 1.6 log10CFU/ml
inhibition [11]: inactive
Activity (Staphylococcus aureus [17]): 1.24 log10CFU/ml
inhibition [12]: 25%

SMILES: Oc1ccc(Cc2cocc2Cc2ccccc2O)cc1
MIC (Pseudomonas aeruginosa): > 128 µg/mL
MIC (Staphylococcus aureus [1]): 64 µg/mL (≈ 228 µM)

Now from value to compound:

MIC (Pseudomonas aeruginosa): > 128 µg/mL
MIC (Staphylococcus aureus [1]): > 128 µg/mL
SMILES: O=C1OC(O)C(Cc2ccc(O)cc2)=C1Cc1ccc(O)cc1 (configuration not stated)

MIC (Pseudomonas aeruginosa): > 128 µg/mL
MIC (Staphylococcus aureus [1]): > 128 µg/mL
SMILES: COc1ccc(CC2=C(Cc3ccc(OC)cc3)C(O)OC2=O)cc1 (configuration not stated)

MIC (Pseudomonas aeruginosa): > 128 µg/mL
MIC (Staphylococcus aureus [1]): > 128 µg/mL
SMILES: COc1ccc(Cc2cocc2Cc2ccccc2OC)cc1

MIC (Pseudomonas aeruginosa): > 128 µg/mL
MIC (Staphylococcus aureus [1]): > 128 µg/mL
SMILES: COc1ccc(CC23OC2OC2OC23Cc2ccc(OC)cc2)cc1 (configuration not stated)

MIC (Pseudomonas aeruginosa): > 128 µg/mL
MIC (Staphylococcus aureus [1]): > 128 µg/mL
SMILES: COc1ccc(Cc2cocc2Cc2ccc(OC)cc2)cc1

MIC (Pseudomonas aeruginosa): > 128 µg/mL
MIC (Staphylococcus aureus [1]): > 128 µg/mL
SMILES: CC(=O)Oc1ccc(Cc2cocc2Cc2ccc(OC(C)=O)cc2)cc1

MIC (Pseudomonas aeruginosa): > 128 µg/mL
MIC (Staphylococcus aureus [1]): > 128 µg/mL
SMILES: COc1ccc(CC2C(=O)OC3OC32Cc2ccc(OC)cc2)cc1 (configuration not stated)
